Measurements reported in PubChem BioAssay AID1259411 (Chemical Carcinogenesis Research Information System (CCRIS), 2018).
Activity calls are given as the source filed them. The rule behind the calls is not given here.

System: rodent carcinogenicity bioassays, tumor incidence
Experiment: CCRIS carcinogenicity studies
Procedure, shortened: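 NCI-built, expert-reviewed records of carcinogenicity and related test outcomes (mutagenicity, tumor promotion/inhibition) compiled from published and report sources, historical span 1985-2011, not updated.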

What does the source list for CC(=O)OC/C=C(C)/C=C/C=C(C)/C=C/C1=C(C)CCCC1(C)C?
carcinogen call (Species: RAT, Strain/Sex: F344/FEMALE, Route: ORAL, Dose: 0, 0.125, 0.25% IN DRINKING WATER (TOTAL DOSE: 0; 50; 95 G/KG) FOR 104 WK (STUDY DURATION: 108 WK), Dose: 0, 0.125, 0.25% IN DRINKING WATER (TOTAL DOSE: 0; 50; 95 G/KG) FOR 104 WK (STUDY DURATION: 108 WK), Tumor Site: Type of Lesion: ADRENAL GLAND: MALIGNANT OR BENIGN PHEOCHROMOCYTOMA, BENIGN PHEOCHROMOCYTOMA, BILATERAL LESIONS, CLITORAL GLAND: ADENOMA): active; positive; carcinogen call (Species: RAT, Strain/Sex: F344/MALE, Route: ORAL, Dose: 0, 0.125, 0.25% IN DRINKING WATER (TOTAL DOSE: 0; 50; 95 G/KG) FOR 104 WK (STUDY DURATION: 108 WK), Dose: 0, 0.125, 0.25% IN DRINKING WATER (TOTAL DOSE: 0; 50; 95 G/KG) FOR 104 WK (STUDY DURATION: 108 WK), Tumor Site: Type of Lesion: ADRENAL GLAND: MALIGNANT PHEOCHROMOCYTOMA, BENIGN PHEOCHROMOCYTOMA, BILATERAL LESIONS): active; positive

C1CC[CH]([Sn]([CH]2CCCCC2)[CH]2CCCCC2)CC1 was tested. Which carcinogen call (Species: Mouse, Strain/Sex: B6C3F1/Female (50/group), Route: Oral, Dose: 0, 1, 3, 6 mg/kg of 98% pure cyhexatin in diet for 2 years, Dose: 0, 1, 3, 6 mg/kg of 98% pure cyhexatin in diet for 2 years) did it give?
Its carcinogen call is “inactive; negative, (dpr evaluator indicated inadequate justification of dose and too narr”.

And the carcinogen call (Species: Mouse, Strain/Sex: B6C3F1/Male (50/group), Route: Oral, Dose: 0, 1, 3, 6 mg/kg of 98% pure cyhexatin in diet for 2 years, Dose: 0, 1, 3, 6 mg/kg of 98% pure cyhexatin in diet for 2 years)?
The carcinogen call was “inactive; negative, (dpr evaluator indicated inadequate justification of dose and too narr”.

Which results are given for CC(C)[C@H](C(=O)O[C@H](C#N)c1cccc(Oc2ccccc2)c1)c1ccc(Cl)cc1?
carcinogen call (Species: Mouse, Strain/Sex: Crl:CD-17BR/Female (80/Group), Route: Oral, Dose: 0, 35, 150 ppm in diet for 18 mo, study duration 18 mo, Dose: 0, 35, 150 ppm in diet for 18 mo, study duration 18 mo): inactive; negative. a 350 ppm group was terminated at study day 58 due to self-trauma and; carcinogen call (Species: Mouse, Strain/Sex: Crl:CD-17BR/Male (80/Group), Route: Oral, Dose: 0, 35, 150 ppm in diet for 18 mo, study duration 18 mo, Dose: 0, 35, 150 ppm in diet for 18 mo, study duration 18 mo): inactive; negative. a 350 ppm group was terminated at study day 58 due to self-trauma and

Which carcinogen call (Species: MOUSE, Strain/Sex: ICR/FEMALE, Route: GAVAGE, Dose: 1.0 MG IN 0.1 ML TRIOCTANOIN 1/WK, Tumor Site: Type of Lesion: FORESTOMACH: SQUAMOUS CELL CARCINOMA) does the source give for C/C=C/Cl here?
The carcinogen call was “active; positive”.

CCC(CC)[N+](=O)[O-] was tested. Which carcinogen call (Species: RAT, Strain/Sex: F344/MALE, Route: GAVAGE, Dose: 0, 2 MMOL/KG BW 1/WK FOR 12 WK THEN 1 MMOL/KG FOR 38 WK (STUDY DURATION: 83 WK), Tumor Site: Type of Lesion: LIVER: CARCINOMA) did it give?
The carcinogen call was “active; positive”.

Which results are given for Nc1ccc(N=Nc2ccccc2)c(N)n1?
carcinogen call (Species: MOUSE, Strain/Sex: B6C3F1/FEMALE, Route: ORAL, Dose: 0, 600, 1200 PPM IN DIET, Dose: 0, 600, 1200 PPM IN DIET, Tumor Site: Type of Lesion: LIVER: HEPATOCELLULAR ADENOMA OR HEPATOCELLULAR CARCINOMA): active; positive; carcinogen call (Species: MOUSE, Strain/Sex: B6C3F1/MALE, Route: ORAL, Dose: 0, 600, 1200 PPM IN DIET, Dose: 0, 600, 1200 PPM IN DIET): active; positive; carcinogen call (Species: RAT, Strain/Sex: F344/FEMALE, Route: ORAL, Dose: 0, 3700, 7500 PPM IN DIET, Dose: 0, 3700, 7500 PPM IN DIET, Tumor Site: Type of Lesion: COLON: ADENOCARCINOMA (NOS)): active; positive; carcinogen call (Species: RAT, Strain/Sex: F344/MALE, Route: ORAL, Dose: 0, 3700, 7500 PPM IN DIET, Dose: 0, 3700, 7500 PPM IN DIET, Tumor Site: Type of Lesion: INTESTINES (COLON OR RECTUM): ADENOCARCINOMA (NOS), ADENOCARCINOMA (NOS) OR ADENOMA (NOS)): active; positive

With CC(=O)OC/N=[N+](/C)[O-] as the compound, how does the carcinogen call (Species: FISH, Strain/Sex: MOSQUITOFISH/MALE, FEMALE, Route: IMMERSION, Dose: 0, 10 MG/L IN WATER FOR 2 HR EXPOSURE (STUDY DURATION: 40 WK), Tumor Site: Type of Lesion: LIVER: TUMOR) read?
Its carcinogen call is “active; positive”.

What about the carcinogen call (Species: MONKEY, Strain/Sex: AFRICAN GREEN/MALE,FEMALE, Route: INTRAPERITONEAL, Dose: 1.94-9.66 G TOTAL DOSE, 1/WK FOR UP TO 89 MO, Tumor Site: Type of Lesion: LIVER: HEPATOCELLULAR CARCINOMA, HEMANGIOSARCOMA, KIDNEY: RENAL CELL CARCINOMA, ESOPHAGUS: SQUAMOUS CELL CARCINOMA, CECU, Tumor Site: Type of Lesion: LIVER: HEPATOCELLULAR CARCINOMA, HEMANGIOSARCOMA, KIDNEY: RENAL CELL CARCINOMA, ESOPHAGUS: SQUAMOUS CELL CARCINOMA, CECU) of the same compound?
Its carcinogen call is “active; positive”.

And the carcinogen call (Species: MONKEY, Strain/Sex: CYNOMOLGUS/MALE,FEMALE, Route: INTRAPERITONEAL, Dose: 1.94-9.66 G TOTAL DOSE, 1/WK FOR UP TO 89 MO, Tumor Site: Type of Lesion: LIVER: HEPATOCELLULAR CARCINOMA, HEMANGIOSARCOMA, KIDNEY: RENAL CELL CARCINOMA, ESOPHAGUS: SQUAMOUS CELL CARCINOMA, CECU, Tumor Site: Type of Lesion: LIVER: HEPATOCELLULAR CARCINOMA, HEMANGIOSARCOMA, KIDNEY: RENAL CELL CARCINOMA, ESOPHAGUS: SQUAMOUS CELL CARCINOMA, CECU)?
Its carcinogen call is “active; positive”.

And the carcinogen call (Species: MONKEY, Strain/Sex: RHESUS/MALE,FEMALE, Route: INTRAPERITONEAL, Dose: 1.94-9.66 G TOTAL DOSE, 1/WK FOR UP TO 89 MO, Tumor Site: Type of Lesion: LIVER: HEPATOCELLULAR CARCINOMA, HEMANGIOSARCOMA, KIDNEY: RENAL CELL CARCINOMA, ESOPHAGUS: SQUAMOUS CELL CARCINOMA, CECU, Tumor Site: Type of Lesion: LIVER: HEPATOCELLULAR CARCINOMA, HEMANGIOSARCOMA, KIDNEY: RENAL CELL CARCINOMA, ESOPHAGUS: SQUAMOUS CELL CARCINOMA, CECU)?
Its carcinogen call is “active; positive”.

What about the carcinogen call (Species: MOUSE, Route: SUBCUTANEOUS, Dose: 0.2-0.4 MG, SINGLE DOSE, Tumor Site: Type of Lesion: UNSPECIFIED: TUMOR) of the same compound?
Its carcinogen call is “active; positive”.

And the carcinogen call (Species: MOUSE, Strain/Sex: BALB/FEMALE, Route: DERMAL, Dose: 0, 0.5 MG PAINTED ON ANAL REGION 3/WK FOR 24 WK (STUDY DURATION: 24 WK), Tumor Site: Type of Lesion: PERIANAL SEBACEOUS GLAND: SQUAMOUS CELL CARCINOMA, ADENOMA)?
The carcinogen call was “active; positive”.

What about the carcinogen call (Species: MOUSE, Strain/Sex: BALB/MALE, Route: DERMAL, Dose: 0, 0.5 MG PAINTED ON ANAL REGION 3/WK FOR 24 WK (STUDY DURATION: 30 WK), Tumor Site: Type of Lesion: PERIANAL SEBACEOUS GLAND: SQUAMOUS CELL CARCINOMA, BLOOD VESSELS: HEMANGIOMA OR HEMANGIOENDOTHELIOMA) of the same compound?
The carcinogen call was “active; positive”.

And the carcinogen call (Species: RAT, Route: INTRAPERITONEAL, SUBCUTANEOUS, Tumor Site: Type of Lesion: BILE DUCT, INTESTINES, KIDNEY, Tumor Site: Type of Lesion: BILE DUCT, INTESTINES, KIDNEY)?
The carcinogen call was “active; positive”.

And the carcinogen call (Species: RAT, Route: INTRAVENOUS, ORAL, Tumor Site: Type of Lesion: INTESTINES, KIDNEY, LIVER, Tumor Site: Type of Lesion: INTESTINES, KIDNEY, LIVER)?
Its carcinogen call is “active; positive”.

What about the carcinogen call (Species: RAT, Route: RECTAL, Tumor Site: Type of Lesion: INTESTINES, KIDNEY) of the same compound?
Its carcinogen call is “active; positive”.

What about the carcinogen call (Species: RAT, Route: SUBCUTANEOUS, Dose: 12.5 MG TOTAL DOSE, 4 DOSES OVER 3 WK, Tumor Site: Type of Lesion: INTESTINES: NEOPLASMS, BILE DUCT: ADENOMA) of the same compound?
The carcinogen call was “active; positive”.

What about the carcinogen call (Species: RAT, Strain/Sex: DONRYU/MALE, Route: RECTAL, Dose: 1 MG, 1/D FOR 7-26 D, Tumor Site: Type of Lesion: INTESTINES (LARGE): ADENOCARCINOMA, KIDNEY: NEPHROBLASTOMA) of the same compound?
Its carcinogen call is “active; positive”.

How did the carcinogen call (Species: RAT, Strain/Sex: SPRAGUE-DAWLEY/FEMALE, Route: ORAL, Dose: 0, 100, 500, 750 MG/L IN DRINKING WATER FOR 104 WK (STUDY DURATION: LIFETIME), Dose: 0, 100, 500, 750 MG/L IN DRINKING WATER FOR 104 WK (STUDY DURATION: LIFETIME), Tumor Site: Type of Lesion: LYMPHATIC SYSTEM: LYMPHOMA OR LEUKEMIA) turn out when OCl was run?
Its carcinogen call is “active; positive”.

And the carcinogen call (Species: RAT, Strain/Sex: SPRAGUE-DAWLEY/MALE, Route: ORAL, Dose: 0, 100, 500, 750 MG/L IN DRINKING WATER FOR 104 WK (STUDY DURATION: LIFETIME), Dose: 0, 100, 500, 750 MG/L IN DRINKING WATER FOR 104 WK (STUDY DURATION: LIFETIME))?
The carcinogen call was “inactive; negative”.
